Source: EP4810052A2, “HCRHR2 SELECTIVE POLYPEPTIDES” (Gubra A/S, priority 2023, dated 2026)
Marks after values point to notes of the source that are not given here. Starred links: 1 amine or outer side, 2 acyl side, 3 side chain; linkers in the order of their positions; H or OH if unused. Non-standard residues stand in square brackets, D forms with d. Residues, ends and D or L forms follow the SMILES beside them. Groups on a side chain read outwards from the residue. *: point of attachment. C20 diacid = O=C(O)CCCCCCCCCCCCCCCCCCC(=O)*; γGlu = O=C(O)[C@H](CCC(=O)[*:2])N[*:1]; NMeI = CC[C@H](C)[C@H](NC)C(=O)O; AEEA = NCCOCCOCC(=O)O

Assays:
[1] = pH 7.5
[2] = Effect on acute food intake in mice; type: in vivo; conditions: single subcutaneous dose
Protocol: Male NMRI mice were obtained from JanVier (JanVier Labs, France) at 5 weeks of age. The animals were group-housed 4 mice pr. cage under a 12/12 h dark-light cycle, light off at 1 PM. Room temperature was controlled to 22°C ± 1°C, with 60 % ± 20% humidity. Animals had ad libitum access to regular rodent chow (Altromin 1324, Brogaarden, Denmark) and tap water.
Animals were transferred 5-7 days before the start of the study to a real-time food intake monitoring system, HM-2 system (MBRose, Denmark) to allow acclimatization to experimental conditions. As the animals were uniquely identified with microchips, each individual animal was identified by its microchip upon entry and exit from the food channel. Randomization of the mice for each study group (n=7-8) was based on body weight measured the day before the start of the study. A vehicle-treated group was included in each experiment. Six hours before the start of the dark phase, animals were fasted. One hour before the dark phase, animals were dosed once subcutaneously with test peptide. Food intake was reported hourly for a period of 72 hours. The percentage of food intake reduction was normalized to average food intake from the vehicle group. Statistical significance was evaluated using One-way analysis of variance with Dunnett's multiple comparison test. P < 0.05 was considered statistically significant.
Selected compounds were tested according to the general procedure on acute food intake in mice to determine the effect of a single subcutaneous dose on food intake in mice over 3 days.

PK in rats = type: in vivo; design: T½ / MRT: unit not given here; conditions: Rat
In short: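 Lean male Sprague Dawley rats (n = 3 per group) got a two-peptide combination at 50 nmol/kg IV and SC. Plasma was sampled from 0.17 to 96 h post dose and analysed by LC-MSMS. PK parameters came from non-compartmental analysis.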

hCRHR2 = molecular target: T1, hCRHR2 (Homo sapiens, UniProt Q13324); assay: HTRF cAMP assay, determination of hCRHR2 potency (peptide libraries 5 conc., purified peptides 11 conc.); type: cell-based; conditions: for Selectivity ratio (hCRHR1/ hCRHR2): hCRHR1-EC50/hCRHR2-EC50; for EC50: purified peptides, CHO-K1 cells stably expressing hCRHR2, cAMP HTRF, read-out: hCRHR2 EC50
T1 sequence (Q13324 1-411): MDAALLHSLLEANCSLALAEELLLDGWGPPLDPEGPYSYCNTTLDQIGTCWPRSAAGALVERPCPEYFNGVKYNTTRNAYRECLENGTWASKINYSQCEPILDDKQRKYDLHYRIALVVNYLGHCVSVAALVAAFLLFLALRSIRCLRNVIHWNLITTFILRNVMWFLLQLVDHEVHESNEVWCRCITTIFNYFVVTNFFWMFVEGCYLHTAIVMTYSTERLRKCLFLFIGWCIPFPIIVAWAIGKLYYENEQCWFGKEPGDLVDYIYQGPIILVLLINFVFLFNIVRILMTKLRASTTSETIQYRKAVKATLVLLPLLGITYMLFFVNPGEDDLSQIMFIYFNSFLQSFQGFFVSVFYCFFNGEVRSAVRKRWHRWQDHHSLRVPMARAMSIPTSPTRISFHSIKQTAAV
In short: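 Potency was read as cAMP accumulation in a stable CHO-K1 line expressing human CRHR2, used in suspension right after thawing. Detection relied on energy transfer from antibody-bound cryptate to d2-cAMP.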

[3] = Thioflavin T fibril formation assay of purified peptides; type: physicochemical; conditions: pH 7.5, ThT assay
In short: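 Compounds at 200 µM in 50 mM phosphate buffer at the stated pH values, or at 200 µM in semaglutide drug product adjusted to pH 7.4, with 4 µM ThT final. Fibrillation followed as ThT fluorescence (ex 450/em 480 nm) over 96 h at 40°C, with 5 min shaking at 700 rpm alternating with 5 min rest; triplicates.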

| Compound | Solubility pH 7.5, target conc. =10 mg/mL (measured mg/mL) [1] [mg/mL] | % FI compared to vehicle, 24 h post-dosing ([2]; 30 nmol/kg) | % FI compared to vehicle, 24 h post-dosing ([2]; 100 nmol/kg) | % FI compared to vehicle, 24 h post-dosing ([2]; 300 nmol/kg) | MRT (PK in rats) | T½ (PK in rats) | Selectivity ratio (hCRHR1/ hCRHR2) (hCRHR2) | EC50 (hCRHR2) [nM] | Fibrillation (pH 7.5) [3] |
| --- | --- | --- | --- | --- | --- | --- | --- | --- | --- |
| CC[C@H](C)[C@H](N)C(=O)N[C@H](C(=O)N[C@@H](CC(C)C)C(=O)N[C@@H](CO)C(=O)N[C@@H](CC(C)C)C(=O)N[C@@H](CC(=O)O)C(=O)N[C@H](C(=O)N1CCC[C@H]1C(=O)N[C@H](C(=O)NCC(=O)N[C@@H](CC(C)C)C(=O)N[C@@H](CC(C)C)C(=O)N[C@@H](CCC(N)=O)C(=O)N[C@H](C(=O)N[C@@H](CC(C)C)C(=O)N[C@@H](CC(C)C)C(=O)N[C@@H](CCC(=O)O)C(=O)N[C@@H](CCC(N)=O)C(=O)N[C@@H](C)C(=O)N[C@@H](CCCNC(=N)N)C(=O)N[C@@H](C)C(=O)N[C@@H](CCCNC(=N)N)C(=O)N[C@@H](C)C(=O)N[C@@H](C)C(=O)N[C@@H](CCCNC(=N)N)C(=O)N[C@@H](CCC(=O)O)C(=O)N[C@@H](CCC(N)=O)C(=O)N[C@@H](C)C(=O)N[C@@H](CCCCNC(=O)COCCOCCNC(=O)COCCOCCNC(=O)CC[C@H](NC(=O)CC[C@H](NC(=O)CCCCCCCCCCCCCCCCCCC(=O)O)C(=O)O)C(=O)O)C(=O)N[C@@H](CCC(=O)O)C(=O)N[C@@H](CC(N)=O)C(=O)N[C@@H](C)C(=O)N[C@@H](CCC(=O)O)C(=O)N[C@H](C(=O)N[C@@H](CC(C)C)C(=O)N[C@@H](C)C(=O)N[C@@H](CCC(=O)O)C(=O)N[C@H](C(N)=O)C(C)C)[C@@H](C)CC)[C@@H](C)CC)[C@@H](C)CC)C(C)C)C(C)C [SEQ ID NO: 17] (H-IVLSLDVPIGLLQILLEQARARAAREQAK([AEEA-AEEA-γGlu-γGlu-C20 diacid])ENAEILAEV-NH2) | 9.2 | 78.97* % | 48.64*** % | 19.52*** % | 7.6 | 7.1 | >2381 | 2.1 | No |
| CC[C@H](C)[C@H](NC)C(=O)N[C@H](C(=O)N[C@@H](CC(C)C)C(=O)N[C@@H](CO)C(=O)N[C@@H](CC(C)C)C(=O)N[C@@H](CC(=O)O)C(=O)N[C@H](C(=O)N1CCC[C@H]1C(=O)N[C@H](C(=O)NCC(=O)N[C@@H](CC(C)C)C(=O)N[C@@H](CC(C)C)C(=O)N[C@@H](CCC(N)=O)C(=O)N[C@H](C(=O)N[C@@H](CC(C)C)C(=O)N[C@@H](CC(C)C)C(=O)N[C@@H](CCC(=O)O)C(=O)N[C@@H](CCC(N)=O)C(=O)N[C@@H](C)C(=O)N[C@@H](CCCNC(=N)N)C(=O)N[C@@H](C)C(=O)N[C@@H](CCCNC(=N)N)C(=O)N[C@@H](C)C(=O)N[C@@H](C)C(=O)N[C@@H](CCCNC(=N)N)C(=O)N[C@@H](CCC(=O)O)C(=O)N[C@@H](CCC(N)=O)C(=O)N[C@@H](C)C(=O)N[C@@H](CCCCNC(=O)COCCOCCNC(=O)COCCOCCNC(=O)CC[C@H](NC(=O)CC[C@H](NC(=O)CCCCCCCCCCCCCCCCCCC(=O)O)C(=O)O)C(=O)O)C(=O)N[C@H](C(=O)N[C@@H](CC(N)=O)C(=O)N[C@@H](C)C(=O)N[C@@H](CCC(=O)O)C(=O)N[C@H](C(=O)N[C@@H](CC(C)C)C(=O)N[C@@H](C)C(=O)N[C@@H](CCC(=O)O)C(=O)N[C@H](C(N)=O)C(C)C)[C@@H](C)CC)[C@@H](C)O)[C@@H](C)CC)[C@@H](C)CC)C(C)C)C(C)C [SEQ ID NO: 5] (H-[NMeI]VLSLDVPIGLLQILLEQARARAAREQAK([AEEA-AEEA-γGlu-γGlu-C20 diacid])TNAEILAEV-NH2) | 11 | 45.67*** % | 18.68*** % | 15.93*** % | 7.9 | 8.6 | >4167 | 1.2 | No |
